In patent US10493170B1, “Targeted graphene quantum dot-based theranostics” (University of South Florida, priority 2014, dated 2019):
pIC50: −log10 of the molar value.

What was measured:
Assay type in all cases: cell-based
[1] = tested on: normal ovary epithelial cells T80; assay: MTT cell viability assay, T80; details: T80, 24 h, concentration equivalent to Dox, read-out: IC50 (relative cellular viability)
Procedure: (§1) Cells were treated with various concentrations of GQDs-FA-Dox (0, 0.25, 0.5, 1, 2, and 4 μM equivalent to Dox) for 24 h and 48 h, respectively. Cell viability was determined by the MTT assay. In brief, the cells were treated with GQDs-FA-Dox conjugates, 10 μL MTT (5 mg/ml) was added into each well and incubated for 4 h, culture medium was removed and 100 μL DMSO was added to dissolve formazan crystals. Absorbance was read at 560 nm for formazan and 670 nm for background by Synergy H4 hybrid multi-mode microplate reader (BioTek).
(§2) To determine the effective dosage of GQDs-FA-Dox on ovarian cancer cells and normal cells, a dose-course MTT assay was done on Ovcar3 cells. The cells were treated with a series of concentration of DOX, GQDs-FA-Dox, and GQDs-Dox for 0.01 to 4 μM (equivalent to Dox concentration) for 24 h.

[2] = tested on: ovarian cancer cells ovcar3; assay: Colony formation assay, ovcar3
Procedure: Colony formation assays were performed with ovarian cancer cells ovcar3 and ovarian surface epithelial cells T80 to examine the impact of DOX, […]-Dox, or GQDs-Dox on the cell growth inhibition.

ovarian cells Ovcar3 = assay: MTT cell viability assay, Ovcar3; details: Homo sapiens, OVCAR-3; Ovcar3, 24 h, concentration equivalent to Dox; read-out: IC50 (relative cellular viability)
Procedure: as §1, §2

Structure (SMILES)	pIC50 [1]	colony growth ([2]; ovcar3)	pIC50 (ovarian cells Ovcar3)	effect of folic acid on ovcar3 cells in response of GQDs-FA-DOX ([2]; ovcar3, colony formation, co-treatment with GQDs-FA-DOX)
COc1cccc2c1C(=O)c1c(O)c3c(c(O)c1C2=O)C[C@@](O)(C(=O)CO)C[C@@H]3O[C@H]1C[C@H](N)[C@H](O)[C@H](C)O1 [DOX, Doxorubicin]	6.07	strongly inhibited	6.03	–
Nc1nc2ncc(CNc3ccc(C(=O)N[C@@H](CCC(=O)O)C(=O)O)cc3)nc2c(=O)[nH]1 [Folic acid, folic acid]	–	–	–	protective effect
